Source: the supplement of paper PMC10307832

These cell lines were tested with CC1(C)CCC(CN2CCN(c3ccc(C(=O)NS(=O)(=O)c4ccc(NCC5CCOCC5)c([N+](=O)[O-])c4)c(Oc4cnc5[nH]ccc5c4)c3)CC2)=C(c2ccc(Cl)cc2)C1 [Venetoclax] + C[C@]1(O)C[C@@H](c2nc(-c3ccc4ccc(-c5ccccc5)nc4c3)c3c(N)nccn32)C1 [Linsitinib] (partner 1 µM) (assay: relative viability (nuclei count vs DMSO), 5 days (fraction); higher = more cells survive). Conditions: first compound 0.01 µM.
In short: (§1)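 Cells from lung cancer lines were seeded into 1536-well plates and, one day later, dosed by pin tool. Treatments were either a single drug or a fixed dose of an anchor drug with five library-drug doses (not always all listed) in √10 steps. After 5 days, nuclei were stained in a one-step fixation (final 0.05% Triton X-100, 1% formaldehyde, 1 ug/ml Hoechst) and counted on 4× images, and relative viability is the treated-to-vehicle nuclei ratio, as the median of duplicate plates.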

Cell Line | relative viability
NCI-H1993 | 0.73
HOP-62 | 1.04
NCI-H1355 | 0.812
NCI-H2405 | 0.931
NCI-H1437 | 0.92
NCI-H661 | 0.676
CAL-12T | 0.728
H3255 | 1
NCI-H2347 | 0.93
NCI-H1975 | 1.02
NCI-H1563 | 1.16
NCI-H1915 | 1.02
NCI-H2087 | 1.01
HCC-366 | 0.659
RERF-LC-KJ | 0.792
EKVX | 0.909
NCI-H1651 | 0.926

Same assay, conditions: first compound 0.03162 µM

Cell Line | relative viability
LXF-289 | 0.955
NCI-H322M | 0.916
HCC-78 | 0.563
BEN | 0.919
HCC-15 | 0.826
HCC-827 | 0.973
NCI-H460 | 0.829
LU99A | 0.604
NCI-H2085 | 0.782
A-427 | 1.18
NCI-H520 | 0.935
NCI-H838 | 1.03
NCI-H1792 | 0.46
NCI-H596 | 1.09
NCI-H3122 | 1.02
201T | 1.01
NCI-H1993 | 0.651

Cell Line | relative viability
HOP-62 | 0.968
NCI-H1355 | 0.814
NCI-H2405 | 0.955
NCI-H1437 | 1.08
NCI-H661 | 0.662
CAL-12T | 0.931
H3255 | 0.953
NCI-H2347 | 0.953
NCI-H1975 | 0.971
NCI-H1563 | 1.29
NCI-H1915 | 1.11
NCI-H2087 | 1.13
HCC-366 | 0.657
RERF-LC-KJ | 0.899
EKVX | 0.976
NCI-H1651 | 1.13

Same assay, conditions: first compound 0.1 µM

Cell Line | relative viability
LXF-289 | 0.895
NCI-H322M | 0.889
HCC-78 | 0.433
BEN | 0.769
HCC-15 | 0.742
HCC-827 | 1
NCI-H460 | 0.665
LU99A | 0.505
NCI-H2085 | 0.853
A-427 | 1.1
NCI-H520 | 0.911
NCI-H838 | 1.01
NCI-H1792 | 0.467
NCI-H596 | 1.1
NCI-H3122 | 0.969
201T | 1.03

Cell Line | relative viability
NCI-H1993 | 0.739
HOP-62 | 1.15
NCI-H1355 | 0.778
NCI-H1437 | 0.975
NCI-H661 | 0.551
CAL-12T | 0.685
H3255 | 0.809
NCI-H2347 | 1.01
NCI-H1975 | 0.869
NCI-H1563 | 1.28
NCI-H1915 | 0.982
NCI-H2087 | 1.01
HCC-366 | 0.605
RERF-LC-KJ | 0.904
EKVX | 0.88
NCI-H1651 | 0.938

Same assay, conditions: first compound 0.3162 µM

Cell Line | relative viability
LXF-289 | 0.932
NCI-H322M | 0.891
HCC-78 | 0.571
BEN | 0.842
HCC-15 | 0.794
HCC-827 | 0.978
NCI-H460 | 0.632
LU99A | 0.56
NCI-H2085 | 0.909
A-427 | 1.16
NCI-H520 | 0.969
NCI-H838 | 1.03
NCI-H1792 | 0.408
NCI-H596 | 1.13
NCI-H3122 | 1.06
201T | 1.03
NCI-H1993 | 0.775

Cell Line | relative viability
HOP-62 | 0.938
NCI-H1355 | 0.792
NCI-H2405 | 0.989
NCI-H1437 | 0.952
NCI-H661 | 0.703
CAL-12T | 0.776
H3255 | 0.873
NCI-H2347 | 0.958
NCI-H1975 | 0.92
NCI-H1563 | 1.4
NCI-H1915 | 1.07
NCI-H2087 | 0.983
HCC-366 | 0.779
RERF-LC-KJ | 0.883
EKVX | 1.03
NCI-H1651 | 0.962

Same assay, conditions: first compound 1 µM

Cell Line | relative viability
LXF-289 | 0.856
NCI-H322M | 0.852
HCC-78 | 0.596
BEN | 0.997
HCC-15 | 0.771
HCC-827 | 0.87
NCI-H460 | 0.726
LU99A | 0.55
NCI-H2085 | 0.853
A-427 | 1.19
NCI-H520 | 0.902
NCI-H838 | 0.938
NCI-H1792 | 0.591
NCI-H596 | 1.11
NCI-H3122 | 1.06
201T | 1.01
NCI-H1993 | 0.749

Cell Line | relative viability
HOP-62 | 0.948
NCI-H1355 | 0.753
NCI-H2405 | 0.9
NCI-H1437 | 0.932
NCI-H661 | 0.567
CAL-12T | 0.691
H3255 | 0.915
NCI-H2347 | 0.95
NCI-H1975 | 0.92
NCI-H1563 | 1.24
NCI-H1915 | 1.03
NCI-H2087 | 0.945
HCC-366 | 0.549
RERF-LC-KJ | 0.85
EKVX | 0.844
NCI-H1651 | 0.995

These cell lines were tested with CC1(C)CCC(CN2CCN(c3ccc(C(=O)NS(=O)(=O)c4ccc(NCC5CCOCC5)c([N+](=O)[O-])c4)c(Oc4cnc5[nH]ccc5c4)c3)CC2)=C(c2ccc(Cl)cc2)C1 [Venetoclax] + C[C@@H](Oc1cc(-c2cnn(C3CCNCC3)c2)cnc1N)c1c(Cl)ccc(F)c1Cl [Crizotinib] (partner 1 µM) in the same assay as above. Conditions: first compound 0.01 µM.
In short: as §1

Cell Line | relative viability
LXF-289 | 0.832
NCI-H322M | 0.988
HCC-78 | 0.315
BEN | 0.825
HCC-15 | 0.814
HCC-827 | 0.982
NCI-H460 | 0.902
LU99A | 0.555
NCI-H2085 | 0.815
A-427 | 0.584
NCI-H520 | 0.769
NCI-H838 | 0.815
NCI-H1792 | 0.938
NCI-H596 | 1.14
NCI-H3122 | 0.306
201T | 1.01
NCI-H1993 | 0.854

Cell Line | relative viability
HOP-62 | 0.896
NCI-H1355 | 1.07
NCI-H2405 | 0.856
NCI-H1437 | 0.851
NCI-H661 | 0.987
CAL-12T | 0.65
H3255 | 0.815
NCI-H2347 | 0.74
NCI-H1975 | 1.13
NCI-H1563 | 0.872
NCI-H1915 | 0.882
NCI-H2087 | 0.931
HCC-366 | 0.502
RERF-LC-KJ | 0.742
EKVX | 0.834
NCI-H1651 | 0.866

Same assay, conditions: first compound 0.03162 µM

Cell Line | relative viability
LXF-289 | 0.816
NCI-H322M | 0.838
HCC-78 | 0.338
BEN | 0.81
HCC-15 | 0.839
HCC-827 | 0.923
NCI-H460 | 0.773
LU99A | 0.587
NCI-H2085 | 0.903
A-427 | 1.09
NCI-H520 | 0.698
NCI-H838 | 0.854
NCI-H1792 | 0.946
NCI-H596 | 0.893
NCI-H3122 | 0.258
201T | 0.995
NCI-H1993 | 0.851

Cell Line | relative viability
HOP-62 | 0.867
NCI-H1355 | 1.14
NCI-H2405 | 0.881
NCI-H1437 | 0.941
NCI-H661 | 1.09
CAL-12T | 0.567
H3255 | 0.824
NCI-H2347 | 0.81
NCI-H1975 | 0.907
NCI-H1563 | 0.878
NCI-H1915 | 0.862
NCI-H2087 | 0.805
HCC-366 | 0.609
RERF-LC-KJ | 0.872
EKVX | 0.985
NCI-H1651 | 0.856

Same assay, conditions: first compound 0.1 µM

Cell Line | relative viability
LXF-289 | 0.776
NCI-H322M | 0.912
HCC-78 | 0.307
BEN | 0.727
HCC-15 | 0.709
HCC-827 | 0.924
NCI-H460 | 0.946
LU99A | 0.576
NCI-H2085 | 0.765
A-427 | 0.873
NCI-H520 | 0.658
NCI-H838 | 0.8
NCI-H1792 | 0.983
NCI-H596 | 1.02
NCI-H3122 | 0.269
201T | 0.989
NCI-H1993 | 0.906

Cell Line | relative viability
HOP-62 | 0.79
NCI-H1355 | 1.07
NCI-H2405 | 0.771
NCI-H1437 | 0.949
NCI-H661 | 1.12
CAL-12T | 0.595
H3255 | 0.837
NCI-H2347 | 0.726
NCI-H1975 | 0.974
NCI-H1563 | 0.884
NCI-H1915 | 0.811
NCI-H2087 | 1.11
HCC-366 | 0.621
RERF-LC-KJ | 1.08
EKVX | 0.897
NCI-H1651 | 0.879

Same assay, conditions: first compound 0.3162 µM

Cell Line | relative viability
LXF-289 | 0.798
NCI-H322M | 0.894
HCC-78 | 0.393
BEN | 0.851
HCC-15 | 0.742
HCC-827 | 0.94
NCI-H460 | 0.908
LU99A | 0.586
NCI-H2085 | 1.02
A-427 | 0.924
NCI-H520 | 0.835
NCI-H838 | 0.88
NCI-H1792 | 0.98
NCI-H596 | 1.02
NCI-H3122 | 0.247
201T | 0.948

Cell Line | relative viability
NCI-H1993 | 0.838
HOP-62 | 1.1
NCI-H1355 | 0.984
NCI-H2405 | 0.824
NCI-H1437 | 0.899
CAL-12T | 0.527
H3255 | 0.773
NCI-H2347 | 0.533
NCI-H1975 | 0.879
NCI-H1563 | 0.996
NCI-H1915 | 0.836
NCI-H2087 | 1.03
HCC-366 | 0.505
RERF-LC-KJ | 0.879
EKVX | 0.895
NCI-H1651 | 0.889

Same assay, conditions: first compound 1 µM

Cell Line | relative viability
LXF-289 | 0.702
NCI-H322M | 0.878
HCC-78 | 0.362
BEN | 0.817
HCC-15 | 0.617
HCC-827 | 0.837
NCI-H460 | 0.719
LU99A | 0.526
NCI-H2085 | 0.745
A-427 | 1
NCI-H520 | 0.698
NCI-H838 | 0.795
NCI-H1792 | 0.93
NCI-H596 | 1.02
NCI-H3122 | 0.276
201T | 1.05
NCI-H1993 | 0.774

Cell Line | relative viability
HOP-62 | 0.83
NCI-H1355 | 1.04
NCI-H2405 | 0.79
NCI-H1437 | 0.864
NCI-H661 | 1.05
CAL-12T | 0.555
H3255 | 1.05
NCI-H2347 | 0.677
NCI-H1975 | 0.867
NCI-H1563 | 0.907
NCI-H1915 | 0.805
NCI-H2087 | 0.863
HCC-366 | 0.388
RERF-LC-KJ | 0.785
EKVX | 0.882
NCI-H1651 | 0.825
